Drawing on patent US20250092039A1, “GLUTARIMIDE-CONTAINING PAN-KRAS-MUTANT DEGRADER COMPOUNDS AND USES THEREOF” (Tiger Biotherapeutics Inc., priority 2022, published 2025), this text covers IC50 and DC50 for 13 compounds.

The target of assay [1] is KRAS-G12V/RAF1 (Homo sapiens (Human), UniProt P01116, G12V). Nature of the assay: KRAS/RAF1 binding inhibition assay (AlphaScreen). As for the experimental part:
Binding affinity against GTP-bound KRAS of the compounds disclosed herein was measured by monitoring the interaction of guanosine 5′-[β,γ-imido]triphosphate-bound (GppNHp-bound) KRAS with the RBD domain of RAF1 in the presence of the test compound. […] The test compounds in 2% DMSO (final concentration) at various concentrations were then added to the reaction mixture and incubated for 60 minutes at 4° C.
Raw ALphaScreen data were converted to a percentage of inhibition (relative to DMSO) using the following equations: • a) For a given test compound concentration X: […]
The IC50 values were determined by nonlinear regression of plots of [inhibitor] vs. percentage of inhibition with variable slope, analyzed using GraphPad Prism (Version 9).
A general note: Bead proximity is the source of the signal in Alpha formats.

Assay [2] addresses KRAS G12V (Homo sapiens (Human), UniProt P01116, G12V). Briefly: KRAS G12V degradation in SW620 cells (Western blot, DC50). The format is cell-based. The following applies: 24 hours. The procedure:
SW620 (KRAS G12V homozygous), AsPC1 (KRAS G12D homozygous), MIA PaCa2 (KRAS G12C homozygous), A549 (KRAS G12S homozygous) and MCF7 (KRAS WT) cells were obtained from American Type Culture Collection (ATCC). […] The following day, the test compound was administered to the cells by using 1000× compound stock solution prepared in DMSO at various concentrations. After administration of the compound, the cells were then incubated at 37° C. for 24 hours. Upon completion, the cells were washed with PBS and protein was collected in Laemmli sample buffer (1×; VWR International). Proteins in cell lysate were separated by SDS-PAGE and transferred to Odyssey nitrocellulose membranes (Licor) with iblot® dry blotting transfer system (ThermoFisher). Nonspecific binding was blocked by incubating membranes with Intercept Blocking Buffer (Licor) for 1 hour at room temperature with gentle shaking. […] After washing 3 times with TBS-T, the membranes were incubated with IRDye® 800CW goat anti-rabbit IgG (1:20,000, Licor) and IRDye® 680RD goat anti-mouse IgG (1:20,000, Licor) for 1 hour. After TBS-T washes, membranes were rinsed in TBS and Western blot images were acquired by Odyssey CLx (LI-COR Biosciences).
The signal intensity of target proteins was calculated using ImageStudio software. KRAS fluorescent intensity (FLU) from DMSO (vehicle) treatment was set as 100%. Relative KRAS expression level was determined by the following formula: […]
The percentage of KRAS expression was calculated using Microsoft Excel. The half-maximal degradation concentration (DCso) values were generated by GraphPad Prism (Version 9) using the dose-response equation of variable slope (four parameters).
(In general: A western blot detects proteins with antibodies after separation by electrophoresis.)

Chain of KRAS G12V (P01116-2 other isoform, or with tags, fused parts or gaps G12V): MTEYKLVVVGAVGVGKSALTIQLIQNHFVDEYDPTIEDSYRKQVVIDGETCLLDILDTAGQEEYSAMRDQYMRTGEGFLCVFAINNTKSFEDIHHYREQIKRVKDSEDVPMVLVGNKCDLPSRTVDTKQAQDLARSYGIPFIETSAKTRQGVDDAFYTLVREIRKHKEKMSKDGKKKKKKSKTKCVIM
Chain of KRAS-G12V/RAF1 (P01116-2 other isoform, or with tags, fused parts or gaps G12V): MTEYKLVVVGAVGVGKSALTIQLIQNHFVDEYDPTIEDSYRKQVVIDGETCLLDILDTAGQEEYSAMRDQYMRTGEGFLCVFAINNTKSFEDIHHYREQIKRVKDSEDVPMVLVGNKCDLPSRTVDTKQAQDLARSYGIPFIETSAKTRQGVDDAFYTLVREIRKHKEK

Consider `CCc1c(F)ccc2cc(O)cc(-c3ncc4c(N5CCC[C@@](C)(O)C5)nc(OCC5(CN6CCC7(CC6)CC(F)(C6CCN(c8ccc9c(c8)CN(C8CCC(=O)NC8=O)C9=O)CC6)C7)CC5)nc4c3F)c12` (stereo partly drawn) [Compound 185, 3-(5-(4-(7-((1-(((7-(8-ethyl-7-fluoro-3-hydroxynaphthalen-1-yl)-8-fluoro-4-((R)-3-hydroxy-3-methylpiperidin-1-yl)pyrido[4,3-d]pyrimidin-2-yl)oxy)methyl)cyclopropyl)methyl)-2-fluoro-7-azaspiro[3.5]nonan-2-yl)piperidin-1-yl)-1-oxoisoindolin-2-yl)piperidine-2,6-dione], for which, in assay [1], the IC50 (commonly the point on the concentration scale where inhibition reaches its midpoint) is 0.02 to 0.2 µM. For the same compound, the DC50 (usually the concentration giving 50% degradation) in assay [2] was above 0.1 µM.

Compound `CCc1c(F)ccc2cc(O)cc(-c3ncc4c(N5CCCOC6CC65)nc(OCC5(CN6CCC(CN7CCN(c8ccc9c(c8)CN([C@H]8CCC(=O)NC8=O)C9=O)CC7)CC6)CC5)nc4c3F)c12` (stereo partly drawn) [Compound 160, (3S)-3-(5-(4-((1-((1-(((4-(2-oxa-6-azabicyclo[5.1.0]octan-6-yl)-7-(8-ethyl-7-fluoro-3-hydroxynaphthalen-1-yl)-8-fluoropyrido[4,3-d]pyrimidin-2-yl)oxy)methyl)cyclopropyl)methyl)piperidin-4-yl)methyl)piperazin-1-yl)-1-oxoisoindolin-2-yl)piperidine-2,6-dione] displayed an IC50 in assay [1] of 0.02 to 0.2 µM. Further, in assay [2], the DC50 was above 0.1 µM.

For `CCc1c(F)ccc2cc(O)cc(-c3ncc4c(N5CCCC6(CC(O)C6)C5)nc(OCC5(CN6CCC(CN7CCN(c8ccc9c(c8)CN([C@H]8CCC(=O)NC8=O)C9=O)CC7)CC6)CC5)nc4c3F)c12` (stereo partly drawn) [Compound 98, (S)-3-(5-(4-((1-((1-(((7-(8-ethyl-7-fluoro-3-hydroxynaphthalen-1-yl)-8-fluoro-4-(2-hydroxy-6-azaspiro[3.5]nonan-6-yl)pyrido[4,3-d]pyrimidin-2-yl)oxy)methyl)cyclopropyl)methyl)piperidin-4-yl)methyl)piperazin-1-yl)-1-oxoisoindolin-2-yl)piperidine-2,6-dione], in assay [1], the IC50 is above 0.2 µM. Further, the DC50 in assay [2] lay in the range of 0.001 to 0.01 µM.

On to `CCc1c(F)ccc2cc(O)cc(-c3ncc4c(N5C[C@@H]6C[C@H](C5)[C@H](O)C6)nc(OCC5(CN6CCC(CN7CCN(c8ccc9c(c8)CN([C@H]8CCC(=O)NC8=O)C9=O)CC7)CC6)CC5)nc4c3F)c12` (stereo in doubt) [Compound 96, (S)-3-(5-(4-((1-((1-(((7-(8-ethyl-7-fluoro-3-hydroxynaphthalen-1-yl)-8-fluoro-4-((1R,SR,6R)-6-hydroxy-3-azabicyclo[3.2.1]octan-3-yl)pyrido[4,3-d]pyrimidin-2-yl)oxy)methyl)cyclopropyl)methyl)piperidin-4-yl)methyl)piperazin-1-yl)-1-oxoisoindolin-2-yl)piperidine-2,6-dione], for which the IC50 in assay [1] was above 0.2 µM. The DC50 in assay [2] was below 0.001 µM.

On to `CCc1c(F)ccc2cc(O)cc(-c3ncc4c(N5CCOCC6(CCO6)C5)nc(OCC5(CN6CCC(CN7CCN(c8ccc9c(c8)CN([C@H]8CCC(=O)NC8=O)C9=O)CC7)CC6)CC5)nc4c3F)c12` (stereo partly drawn) [Compound 125, (3S)-3-(5-(4-((1-((1-(((7-(8-ethyl-7-fluoro-3-hydroxynaphthalen-1-yl)-8-fluoro-4-(1,6-dioxa-9-azaspiro[3.6]decan-9-yl)pyrido[4,3-d]pyrimidin-2-yl)oxy)methyl)cyclopropyl)methyl)piperidin-4-yl)methyl)piperazin-1-yl)-1-oxoisoindolin-2-yl)piperidine-2,6-dione], for which the IC50 in assay [1] lay in the range of 0.02 to 0.2 µM.

In assay [2], `CCc1c(F)ccc2cc(O)cc(-c3ncc4c(N5CCC[C@@]6(CCO6)C5)nc(OCC5(CN6CCC(CN7CCN(c8ccc9c(c8)CN(C8CCC(=O)NC8=O)C9=O)CC7)CC6)CC5)nc4c3F)c12` (stereo partly drawn) [Compound 45, (S)-3-(5-(4-((1-((1-(((7-(8-ethyl-7-fluoro-3-hydroxynaphthalen-1-yl)-8-fluoro-4-((R)-1-oxa-6-azaspiro[3.5]nonan-6-yl)pyrido[4,3-d]pyrimidin-2-yl)oxy)methyl)cyclopropyl)methyl)piperidin-4-yl)methyl)piperazin-1-yl)-1-oxoisoindolin-2-yl)piperidine-2,6-dione] yielded a DC50 above 0.1 µM.

In assay [2], `CCc1c(F)ccc2cc(O)cc(-c3ncc4c(N5CCCC6(CCO6)C5)nc(OCC5(CN6CCC(CN7CCN(c8ccc9c(c8)CN(C8CCC(=O)NC8=O)C9=O)CC7)CC6)CC5)nc4c3F)c12` [Compound 23, (3S)-3-(5-(4-((1-((1-(((7-(8-ethyl-7-fluoro-3-hydroxynaphthalen-1-yl)-8-fluoro-4-(1-oxa-6-azaspiro[3.5]nonan-6-yl)pyrido[4,3-d]pyrimidin-2-yl)oxy)methyl)cyclopropyl)methyl)piperidin-4-yl)methyl)piperazin-1-yl)-1-oxoisoindolin-2-yl)piperidine-2,6-dione] returned a half-maximal degradation concentration (DC50) of 0.001 to 0.01 µM.

For the compound `CCc1cccc2cc(O)cc(-c3ncc4c(N5CCNC(=O)CC5)nc(OCC5(CN6CCC(CN7CCN(c8ccc9c(c8)CN([C@H]8CCC(=O)NC8=O)C9=O)CC7)CC6)CC5)nc4c3F)c12` [Compound 127, (S)-3-(5-(4-((1-((1-(((7-(8-ethyl-3-hydroxynaphthalen-1-yl)-8-fluoro-4-(5-oxo-1,4-diazepan-1-yl)pyrido[4,3-d]pyrimidin-2-yl)oxy)methyl)cyclopropyl)methyl)piperidin-4-yl)methyl)piperazin-1-yl)-1-oxoisoindolin-2-yl)piperidine-2,6-dione], in assay [2], the DC50 was above 0.1 µM.

As for `CCc1cccc2cc(O)cc(-c3ncc4c(N(C)C5C[C@H]5F)nc(OCC5(CN6CCC(CN7CCN(c8ccc9c(c8)CN([C@H]8CCC(=O)NC8=O)C9=O)CC7)CC6)CC5)nc4c3F)c12` (stereo partly drawn) [Compound 29, (S)-3-(5-(4-((1-((1-(((7-(8-ethyl-3-hydroxynaphthalen-1-yl)-8-fluoro-4-(((1R,2R)-2-fluorocyclopropyl)(methyl)amino)pyrido[4,3-d]pyrimidin-2-yl)oxy)methyl)cyclopropyl)methyl)piperidin-4-yl)methyl)piperazin-1-yl)-1-oxoisoindolin-2-yl)piperidine-2,6-dione], the half-maximal degradation concentration (DC50) in assay [2] fell in the range of 0.001 to 0.01 µM.

`CCc1c(F)ccc2cc(O)cc(-c3ncc4c(N5CCCNC(=O)C5)nc(OCC5(CN6CCC(CN7CCN(c8ccc9c(c8)CN([C@H]8CCC(=O)NC8=O)C9=O)CC7)CC6)CC5)nc4c3F)c12` [Compound 95, (S)-3-(5-(4-((1-((1-(((7-(8-ethyl-7-fluoro-3-hydroxynaphthalen-1-yl)-8-fluoro-4-(3-oxo-1,4-diazepan-1-yl)pyrido[4,3-d]pyrimidin-2-yl)oxy)methyl)cyclopropyl)methyl)piperidin-4-yl)methyl)piperazin-1-yl)-1-oxoisoindolin-2-yl)piperidine-2,6-dione] returned a 50% degradation concentration (DC50) in assay [2] above 0.1 µM.

As to `CCc1c(F)ccc2cc(O)cc(-c3ncc4c(N5CCC[C@@](C)(O)C5)nc(OCC5(CN6CCC(N7CCN(c8ccc9c(c8)CN([C@H]8CCC(=O)NC8=O)C9=O)CC7)CC6)CC5)nc4c3F)c12` [Compound 7, (S)-3-(5-(4-(1-((1-(((7-(8-ethyl-7-fluoro-3-hydroxynaphthalen-1-yl)-8-fluoro-4-((R)-3-hydroxy-3-methylpiperidin-1-yl)pyrido[4,3-d]pyrimidin-2-yl)oxy)methyl)cyclopropyl)methyl)piperidin-4-yl)piperazin-1-yl)-1-oxoisoindolin-2-yl)piperidine-2.6-dione], in assay [2], the DC50 was below 0.001 µM.

`CCc1c(F)ccc2cc(O)cc(-c3ncc4c(N5CCC[C@]6(CCO6)C5)nc(OCC5(CN6CCC(CN7CCN(c8ccc9c(c8)CN(C8CCC(=O)NC8=O)C9=O)CC7)CC6)CC5)nc4c3F)c12` (stereo partly drawn) [Compound 44, (S)-3-(5-(4-((1-((1-(((7-(8-ethyl-7-fluoro-3-hydroxynaphthalen-1-yl)-8-fluoro-4-((S)-1-oxa-6-azaspiro[3.5]nonan-6-yl)pyrido[4,3-d]pyrimidin-2-yl)oxy)methyl)cyclopropyl)methyl)piperidin-4-yl)methyl)piperazin-1-yl)-1-oxoisoindolin-2-yl)piperidine-2,6-dione] had a DC50 in assay [2] of 0.001 to 0.01 µM.

Regarding `CCc1cccc2cc(O)cc(-c3ncc4c(N5CCC[C@@](C)(O)C5)nc(OCC5(CN6CC7(CCC(F)(CN8CCN(c9ccc%10c(c9)CN([C@H]9CCC(=O)NC9=O)C%10=O)CC8)CC7)C6)CC5)nc4c3F)c12` [Compound 179, (S)-3-(5-(4-((2-((1-(((7-(8-ethyl-3-hydroxynaphthalen-1-yl)-8-fluoro-4-((R)-3-hydroxy-3-methylpiperidin-1-yl)pyrido[4,3-d]pyrimidin-2-yl)oxy)methyl)cyclopropyl)methyl)-7-fluoro-2-azaspiro[3.5]nonan-7-yl)methyl)piperazin-1-yl)-1-oxoisoindolin-2-yl)piperidine-2,6-dione], the concentration for half-maximal inhibition (IC50) in assay [1] fell in the range of 0.02 to 0.2 µM.
